Results published in patent publication US20100317845A1, “Sucrose of new confrontational polymorphs and manufacturing method thereof” (NATIONAL CENTRAL UNIVERSITY, priority 2009, published 2010).
Converted amounts (≈) assume the structure as drawn.

Assays:
physchem [1] = format: physicochemical; conditions: 25 °C
physchem [2] = format: physicochemical; conditions: 60 °C, water
Description: In Step S42, preheat 60 mL of furfuryl alcohol below 60° C. for approximately 15 minutes. In Step S43, mix the furfuryl alcohol and the saturated sucrose solution in a ratio of 1:1, and stir the mixed solution uniformly by a rotation speed of 500 rpm. In Step S44, maintain the mixed solution at 60° C., and crystal starts forming after approximately 4 to 5 hours. In Step S45, turn off the power of the constant-temperature water tank, and lower the temperature to room temperature naturally, and maintain this state for three days until the crystallization completes, and filter the mixed solution, and rinse the recrystallized sucrose by ethyl alcohol or acetone, and bake the crystal sucrose in a vacuum oven at 40° C. for 24 hours to obtain a Form II sucrose of a new conformational polymorph in accordance with the present invention.

- solubility (physchem [1]): 1850 to 1950 mg/mL (≈ 5400 to 5700 mM)
- solubility (physchem [2]): 2870 mg/mL (≈ 8390 mM)
Compound: OC[C@H]1O[C@@](CO)(O[C@H]2O[C@H](CO)[C@@H](O)[C@H](O)[C@H]2O)[C@@H](O)[C@@H]1O [Form I sucrose, sucrose]
